Literature values in patent publication US20060239954A1, “Antimicrobial spray for use on pets” (priority 2005, published 2006).

Experiments:
Conditions in all cases: 0.1% aqueous solution
Staphylococcus aureus = test system: Staphylococcus aureus
Escherichia coli = test system: Escherichia coli
Pseudomonas aeruginosa = test system: Pseudomonas aeruginosa

N=C(NCCCCCCNC(=N)NC(=N)Nc1ccc(Cl)cc1)NC(=N)Nc1ccc(Cl)cc1.O=C(O)[C@H](O)[C@@H](O)[C@H](O)[C@H](O)CO.O=C(O)[C@H](O)[C@@H](O)[C@H](O)[C@H](O)CO [Chlorhexidine gluconate, chlorhexidine gluconate]
bactericidal: bactericidal against Staphylococcus aureus (Staphylococcus aureus) | bactericidal against Escherichia coli (Escherichia coli) | bactericidal against Pseudomonas aeruginosa (Pseudomonas aeruginosa)
